Source: patent publication EP0514540B1, “PYRROLO 2,3-d]PYRIMIDINE DERIVATIVE, PROCESS FOR PREPARING THE SAME, AND PHARMACEUTICAL PREPARATION COMPRISING THE DERIVATIVE AS ACTIVE INGREDIENT” (TEIJIN LIMITED, priority 1989, dated 1991)

What was measured:
hypoxemia model animals [1] = experiment: Effect on partial pressure of gases in arterial blood, injection system, Method B (acetic acid-induced hypoxemia); type: in vivo, Male Wister strain rats; settings: 2.0% acetic acid intratracheal 0.6 ml/kg, PaO2 60-70 mmHg, intravenous continuous 0.1 mg/kg/min, after minus before administration
Procedure: (§1) Example 59: Effect on Partial Pressure Value of Gases in Arterial Blood (Injection system)
Male Wister strain rats (body about 300 g) were anesthetized with halothane inhalant, and then 2.0% acetic acid was intratrachealy injected at 0.6 ml/kg to induce a respiratory insufficiency. The animals were intra-peritoneally anesthetized with urethane-α-chloralose, and a cannula was inserted into the femoral artery. After the hypoxemic state (PaO2: 60-70 mmHg) was observed a compound in accordance with the present invention (test substance) was intravenously injected into these hypoxemia model animals by a continuous manner (0.1 mg/kg/min), and then a partial pressure value of gases (PaO2, PaCO2) in arterial blood were immediately determined.

hypoxemia model animals [2] = experiment: Effect on partial pressure of gases in arterial blood, injection system, Method A (carbon powder-induced hypoxemia); type: in vivo, Male Wister strain rats; settings: carbon powder intratracheal, PaO2 50-60 mmHg, intravenous continuous 0.1 mg/kg/min., 10 min, after minus before administration
Procedure: as §1
Male Wister strain rats (body weight about 300 g) were anesthetized intra-peritoneally with urethane, and a cannula was inserted into the respiratory tract and the femoral artery, respectively. A suspension (30-100 µm, 10 mg/ml) of carbon powder in a corn oil was intratrachealy injected to induce a hypoxemia state (PaO2; 50-60 mmHg). A compound in accordance with the present invention was intravenously injected into these hypoxemia model animals by a continuous manner (0.1 mg/kg/min., 10 min), and then a partial pressure value of gases (PaO2, PaCO2) in arterial blood were immediately determined.

hypoxemia state = experiment: Effect on partial pressure of gases in arterial blood, oral administration system (acetic acid-induced hypoxemia); type: in vivo, Male Wistar strain rats; settings: orally administered; 2.0% acetic acid intratracheal 0.8 ml/kg; 60 min. after the administration
Procedure: Example 60: Effect on Partial Pressure Value of Gases in Arterial Blood (Oral Administration System)
Male Wistar strain rats (body weight about 250 g) fasted overnight were anesthetized with halothane inhalant, and then a cannula was inserted into the femoral artery. After the animals recovered from the anesthesia, they were again anesthetized with halothane inhalant, and then 2.0% acetic acid was intratrachealy injected at 0.8 ml/kg to induce a hypoxemia state. After the hypoxemic state was observed over about 60 min., a compound in accordance with the present invention (test substance) was orally administered to the animals. On 60 min. after the administration, the partial pressure value of gases (PaO2, PaCO2) in arterial blood were determined.

| Compound | Activity for Decreasing PaCO2 ΔPaCO2 (hypoxemia model animals [1]) | Activity for Increasing PaO2 ΔPaO2 (hypoxemia model animals [1]) | Activity for Decreasing PaCO2 ΔPaCO2 (hypoxemia model animals [2]) | Activity for Increasing PaO2 ΔPaO2 (hypoxemia model animals [2]) | Activity for Decreasing PaCO2 ΔPaCO2 (hypoxemia state) | Activity for Increasing PaO2 ΔPaO2 (hypoxemia state) |
| --- | --- | --- | --- | --- | --- | --- |
| C=CCNc1nc(N(C)CCc2ccccc2)c2ccn(C)c2n1 [Compound 167] | -6.6 mmHg | +11.3 mmHg |  |  |  |  |
| C=CCNc1nc(N2CCN(C(c3ccc(F)cc3)c3ccc(F)cc3)CC2)c2ccn(C)c2n1 [Compound 133] |  |  | -0.6 mmHg | +6.9 mmHg |  |  |
| C=CCNc1nc(N(C)C)c2ccn(C)c2n1 [Compound 165] | +1.1 mmHg | +7.9 mmHg |  |  | ± (ΔPaCO2 ±: 0 - -3 mmHg) | + (ΔPaO2 +: +3 - +6 mmHg) |
| C=CCNc1nc(NCCc2ccccc2)c2ccn(C)c2n1 [Compound 164] | -19.2 mmHg | +15.4 mmHg |  |  |  |  |
| C=CCNc1nc(NC(C)c2ccccc2)c2ccn(C)c2n1 (racemic) [Compound 156, (±)-2-allylamino-7-methyl-4-(1-phenylethyl-amino)-7H-pyrrolo[2,3-d]pyrimidine] | -9.1 mmHg | +19.7 mmHg |  |  | + (+: -3 - -6 mmHg) | + + |
| C=CCNc1nc(N2CCOCC2)c2ccn(C)c2n1 [Compound 124] | -4.0 mmHg | +5.7 mmHg |  |  | + (+: -3 - -6 mmHg) | + (ΔPaO2 +: +3 - +6 mmHg) |
| C=CCNc1nc(N2CCN(C(c3ccc(F)cc3)c3ccc(F)cc3)CC2)c2ccn(CC=C)c2n1 [Compound 143] |  |  | +1.1 mmHg | +5.0 mmHg |  |  |
| C=CCNc1nc(NC2CCCCC2)c2ccn(C)c2n1 [Compound 150] | -18.6 mmHg | +18.4 mmHg |  |  |  |  |
| C=CCNc1nc(N2CCC(OC(C)=O)CC2)c2ccn(C)c2n1 [Compound 119] |  |  | -2.6 mmHg | +7.1 mmHg |  |  |
| C=CCNc1nc(NC2CCCc3ccccc32)c2ccn(C)c2n1 (centres unmarked) [Compound 162] | -17.2 mmHg | +18.1 mmHg |  |  |  |  |
